Each molecule was assayed against Escherichia coli DNA gyrase A/B tetramer (Escherichia coli, UniProt P0AES4+P0AES6) (assay: DNA gyrase supercoiling activity fluorescence polarisation assay).
Chain of Escherichia coli DNA gyrase A/B tetramer (P0AES4 whole entry, one chain of several): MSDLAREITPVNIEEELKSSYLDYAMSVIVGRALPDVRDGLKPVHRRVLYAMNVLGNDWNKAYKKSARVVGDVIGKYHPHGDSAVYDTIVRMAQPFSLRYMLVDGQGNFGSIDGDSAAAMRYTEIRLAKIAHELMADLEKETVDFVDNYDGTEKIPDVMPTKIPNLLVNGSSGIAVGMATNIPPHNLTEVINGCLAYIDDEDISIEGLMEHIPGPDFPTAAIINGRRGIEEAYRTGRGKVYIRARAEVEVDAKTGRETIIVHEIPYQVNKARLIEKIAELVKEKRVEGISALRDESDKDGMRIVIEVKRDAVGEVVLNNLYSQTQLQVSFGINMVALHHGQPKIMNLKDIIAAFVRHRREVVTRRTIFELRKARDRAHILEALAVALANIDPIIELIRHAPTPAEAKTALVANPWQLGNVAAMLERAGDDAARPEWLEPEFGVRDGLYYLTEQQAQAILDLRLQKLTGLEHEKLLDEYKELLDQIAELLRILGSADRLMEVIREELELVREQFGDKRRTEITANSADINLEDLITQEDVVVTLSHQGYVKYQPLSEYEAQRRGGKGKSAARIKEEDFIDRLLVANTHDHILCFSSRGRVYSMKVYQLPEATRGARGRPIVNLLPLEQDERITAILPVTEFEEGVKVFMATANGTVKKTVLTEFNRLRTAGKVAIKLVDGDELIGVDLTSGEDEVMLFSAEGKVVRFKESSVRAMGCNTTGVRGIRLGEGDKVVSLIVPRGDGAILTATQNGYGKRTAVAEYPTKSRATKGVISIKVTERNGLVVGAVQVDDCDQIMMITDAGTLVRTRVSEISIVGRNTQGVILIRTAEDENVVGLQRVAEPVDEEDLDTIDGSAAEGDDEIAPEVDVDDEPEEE
Format: biochemical
Procedure, shortened: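 5 nM gyrase supercoils 130 μg/ml relaxed triplex-sequence plasmid with 0.3 mM ATP in Tris pH 7.5/KCl/MgCl2/spermidine buffer, 0.8% DMSO, ~30 min at ambient temperature, 5-10 compound concentrations. Quenched with 40 nM BODIPY-FL triplex probe at pH 3.5; anisotropy read after 60 min (485/535 nm). IC50 by nonlinear regression against no-compound and 5 uM ciprofloxacin controls.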
With `C/C(=N\Nc1ccccc1)c1cc2c(c(F)c1F)N1C[C@@H](C)O[C@@H](C)[C@@H]1C1(C2)C(=O)NC(=O)NC1=O` (relative stereo) [Example 58, (2R,4S,4aS)-rel-9,10-Difluoro-2,4-dimethyl-8-[(1E)-1-(2-phenylhydrazinylidene)ethyl]-1,2,4,4a-tetrahydro-2′H,6H-spiro[1,4-oxazino[4,3-a]quinoline-5,5′-pyrimidine]-2′,4′,6′(1′H,3′H)-trione] the IC50 was 980 nM. Molecule `C/C(=N\NC(=O)CC#N)c1cc2c(c(F)c1F)N1C[C@@H](C)O[C@@H](C)[C@@H]1C1(C2)C(=O)NC(=O)NC1=O` (relative stereo) [Example 53, 2-Cyano-N′-{(1E)-1-[(2R,4S,4aS)-rel-9,10-difluoro-2,4-dimethyl-2′,4′,6′-trioxo-1,1′,2,3′,4,4′,4a,6′-octahydro-2′H,6H-spiro[1,4-oxazino[4,3-a]quinoline-5,5′-pyrimidin]-8-yl]ethylidene}acetohydrazide] has an IC50 of 1640 nM. `Cc1nnc(C)n1/N=C/c1cc2c(c(F)c1F)N1C[C@@H](C)O[C@@H](C)[C@@H]1C1(C2)C(=O)NC(=O)NC1=O` (relative stereo) [Example 47, (2R,4S,4aS)-rel-8-{(E)-[(3,5-Dimethyl-4H-1,2,4-triazol-4-yl)imino]methyl}-9,10-difluoro-2,4-dimethyl-1,2,4,4a-tetrahydro-2′H,6H-spiro[1,4-oxazino[4,3-a]quinoline-5,5′-pyrimidine]-2′,4′,6′(1′H,3′H)-trione] was tested, and the IC50 was 3670 nM. In the case of `C[C@H]1CN2c3c(cc(C#Cc4cc5ccccc5s4)c(F)c3F)CC3(C(=O)NC(=O)NC3=O)[C@@H]2[C@@H](C)O1` (racemic) [Example 11, (2S,4R,4aR)-rel-8-(1-Benzothiophen-2-ylethynyl)-9,10-difluoro-2,4-dimethyl-1,2,4,4a-tetrahydro-2′H,6H-spiro[1,4-oxazino[4,3-a]quinoline-5,5′-pyrimidine]-2′,4′,6′(1′H,3′H)-trione], the IC50 is reported as 5490 nM. `C/C(=N\NC(=O)Nc1ccccc1)c1cc2c(c(F)c1F)N1C[C@@H](C)O[C@@H](C)[C@@H]1C1(C2)C(=O)NC(=O)NC1=O` (relative stereo) [Example 51, (2E)-2-{1-[(2R,4S,4aS)-rel-9,10-Difluoro-2,4-dimethyl-2′,4′,6′-trioxo-1,1′,2,3′,4,4′,4a,6′-octahydro-2′H,6H-spiro[1,4-oxazino[4,3-a]quinoline-5,5′-pyrimidin]-8-yl]ethylidene}-N-phenylhydrazinecarboxamide] showed an IC50 of 5500 nM. With `C[C@@H]1CN2c3cc(F)c(C#Cc4cncs4)cc3CC3(C(=O)NC(=O)NC3=O)[C@H]2[C@H](C)O1` (relative stereo) [Example 27, (2R,4S,4 aS)-rel-9-Fluoro-2,4-dimethyl-8-(1,3-thiazol-5-ylethynyl)-1,2,4,4a-tetrahydro-2′H,6H-spiro[1,4-oxazino[4,3-a]quinoline-5,5′-pyrimidine]-2′,4′,6′(1′H,3′H)-trione] the IC50 was 830 nM. `COC(=O)N/N=C(\C)c1cc2c(c(F)c1F)N1C[C@@H](C)O[C@@H](C)[C@@H]1C1(C2)C(=O)NC(=O)NC1=O` (racemic) [Example 49, Methyl (2E)-2-{1-[(2R,4S,4aS)-rel-9,10-difluoro-2,4-dimethyl-2′,4′6′-trioxo-1,1′,2,3′,4,4′,4a,6′-octahydro-2′H,6H-spiro[1,4-oxazino[4,3-a]quinoline-5,5′-pyrimidin]-8-yl]ethylidene}hydrazinecarboxylate] showed an IC50 of 450 nM. Work on `C[C@@H]1CN2c3c(cc(C(=O)NC4CCS(=O)(=O)C4)c(F)c3F)CC3(C(=O)NC(=O)NC3=O)[C@H]2[C@H](C)O1` (relative stereo) [Example 62, (2R,4S,4aS)-rel-N-(1,1-Dioxidotetrahydrothiophen-3-yl)-9,10-difluoro-2,4-dimethyl-2′,4′,6′-trioxo-1,1′,2,3′,4,4′,4a,6′-octahydro-2′H,6H-spiro[1,4-oxazino[4,3-a]quinoline-5,5′-pyrimidine]-8-carboxamide] yielded an IC50 of 7100 nM. Work on `C/C(=N\NC(N)=O)c1cc2c(c(F)c1F)N1C[C@@H](C)O[C@@H](C)[C@@H]1C1(C2)C(=O)NC(=O)NC1=O` (relative stereo) [Example 54, (2E)-2-{1-[(2R,4S,4aS)-rel-9,10-Difluoro-2,4-dimethyl-2′,4′,6′-trioxo-1,1′,2,3′,4,4′,4a,6′-octahydro-2′H,6H-spiro[1,4-oxazino[4,3-a]quinoline-5,5′-pyrimidin]-8-yl]ethylidene}hydrazinecarboxamide] yielded an IC50 of 2300 nM. `C[C@@H]1CN2c3c(F)cc(C#Cc4cnccn4)cc3CC3(C(=O)NC(=O)NC3=O)[C@H]2[C@H](C)O1` (relative stereo) [Example 43, (2R,4S,4aS)-rel-10-Fluoro-2,4-dimethyl-8-(pyrazin-2-ylethynyl)-1,2,4,4a-tetrahydro-2′H,6H-spiro[1,4-oxazino[4,3-a]quinoline-5,5′-pyrimidine]-2′,4′,6′(1′H,3′H)-trione] showed an IC50 of 1470 nM. Work on `Cc1nnc(C#Cc2cc3c(cc2F)N2C[C@@H](C)O[C@@H](C)[C@@H]2C2(C3)C(=O)NC(=O)NC2=O)s1` (relative stereo) [Example 25, (2R,4S,4aS)-rel-9-Fluoro-2,4-dimethyl-8-[(5-methyl-1,3,4-thiadiazol-2-yl)ethynyl]-1,2,4,4a-tetrahydro-2′H,6H-spiro[1,4-oxazino[4,3-a]quinoline-5,5′-pyrimidine]-2′,4′,6′(1′H,3′H)-trione] yielded an IC50 of 870 nM. In the case of `C[C@H]1CN2c3c(cc(C#C[Si](C)(C)C)c(F)c3F)CC3(C(=O)NC(=O)NC3=O)[C@@H]2[C@@H](C)O1` (relative stereo) [Example 6, (2S,4R,4aR)-rel-9,10-Difluoro-2,4-dimethyl-8-[(trimethylsilyl)ethynyl]-1,2,4,4a-tetrahydro2′H,6H-spiro[1,4-oxazino[4,3-a]quinoline-5,5′-pyrimidine]-2′,4′,6′(1′H,3′H)-trione], the IC50 is reported as 3270 nM. In the case of `C[C@@H]1CN2c3cc(F)c(C#Cc4cccs4)cc3CC3(C(=O)NC(=O)NC3=O)[C@H]2[C@H](C)O1` (relative stereo) [Example 28, (2R,4S,4aS)-rel-9-Fluoro-2,4-dimethyl-8-(thiophen-2-ylethynyl)-1,2,4,4a-tetrahydro-2′H,6H-spiro[1,4-oxazino[4,3-a]quinoline-5,5′-pyrimidine]-2′,4′,6′(1′H,3′H)-trione], the IC50 is reported as 1110 nM. For `C[C@@H]1CN2c3ccc(NC(=O)N(C)C)cc3CC3(C(=O)NC(=O)NC3=O)[C@H]2[C@H](C)O1` (relative stereo) [Example 77, 3-[(2R,4S,4aS)-rel-2,4-Dimethyl-2′,4′,6′-trioxo-1,1′,2,3′,4,4′,4a,6′-octahydro-2′H,6H-spiro[1,4-oxazino[4,3-a]quinoline-5,5′-pyrimidin]-8-yl]-1,1-dimethylurea], the IC50 was 21700 nM. Work on `C[C@@H]1CN2c3cc(F)c(C#Cc4ncccn4)cc3CC3(C(=O)NC(=O)NC3=O)[C@H]2[C@H](C)O1` (relative stereo) [Example 33, (2R,4S,4aS)-rel-9-Fluoro-2,4-dimethyl-8-(pyrimidin-2-ylethynyl)-1,2,4,4a-tetrahydro-2′H,6H-spiro[1,4-oxazino[4,3-a]quinoline-5,5′-pyrimidine]-2′,4′,6′(1′H,3′H)-trione] yielded an IC50 of 1180 nM.
